Assay type in all cases: cell-based
Test [1] deals with T1, ligand binding domain of mouse PPARα (Mus musculus, UniProt P23204).
T1 construct: expressed in transfected cells; host or cells: COS-1
T1 sequence (P23204 239-466 limits assumed): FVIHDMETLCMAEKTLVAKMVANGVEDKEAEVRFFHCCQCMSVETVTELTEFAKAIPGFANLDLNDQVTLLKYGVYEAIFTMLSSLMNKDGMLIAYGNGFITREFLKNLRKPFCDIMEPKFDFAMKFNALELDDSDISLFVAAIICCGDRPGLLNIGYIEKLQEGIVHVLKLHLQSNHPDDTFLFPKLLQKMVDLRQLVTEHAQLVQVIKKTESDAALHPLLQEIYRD
Put plainly: GAL4-PPARα chimera / (UAS)5-tk-CAT reporter transfection assay in COS-1 cells. Conditions: 100 μM in DMSO. The method, then:
COS-1 cells (American Type Culture Collection) were maintained in α-minimal essential media (Sigma) supplemented with 8% fetal calf serum (Gibco BRL), 0.2 mg/ml streptomycin and 200 U/ml penicillin. The pSG5-GAL4-PPAR chimera expression constructs, containing the ligand binding domain of mouse PPARα, β or γ, as well as the (UAS)5-tk-CAT reporter construct were kindly provided by Steven A. Kliewer (Glaxo Research Institute). At 75–90% confluence, COS-1 cells were co-transfected with GAL4-PPAR, (UAS)5-tk-CAT, and pSV-βGal (Promega) as described in Lehmann, J. M. et al., J. Biol. Chem. 270, 12953–12956 (1995). Twenty-four hours after transfection, the cells were treated with the indicated amounts of CLA, or a single 100 μM dose of 4-chloro-6-(2,3-xylindino)-2-pyrimidinylthio)-acetic acid (Wy 14,643; a hypolipidemic drug known as a peroxisome proliferator). After 6 hours of treatment, the cells were harvested and chloramphenicol acetyltransferase levels were assessed by ELISA (Gibco BRL) according to the manufacturer's instructions. Data is expressed relative to β-galactosidase activity. CLA used in this experiment was obtained from a commercially available mixture from NuChek Prep, Elysian Minn. […]

In test [2] the target is T2, ligand binding domain of mouse PPARβ (Mus musculus, UniProt P35396).
T2 construct: expressed in transfected cells; host or cells: COS-1
T2 sequence (P35396 210-438 limits assumed): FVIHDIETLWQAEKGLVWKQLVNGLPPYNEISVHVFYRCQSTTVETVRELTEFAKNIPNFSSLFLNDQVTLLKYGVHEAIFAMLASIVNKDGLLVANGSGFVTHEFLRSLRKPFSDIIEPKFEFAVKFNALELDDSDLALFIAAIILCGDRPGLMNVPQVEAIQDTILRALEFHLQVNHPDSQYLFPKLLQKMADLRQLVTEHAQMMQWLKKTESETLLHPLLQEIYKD
Put plainly: GAL4-PPARβ chimera / (UAS)5-tk-CAT reporter transfection assay in COS-1 cells. To be noted: 100 μM in DMSO. The method, then: COS-1 cells (American Type Culture Collection) were maintained in α-minimal essential media (Sigma) supplemented with 8% fetal calf serum (Gibco BRL), 0.2 mg/ml streptomycin and 200 U/ml penicillin. The pSG5-GAL4-PPAR chimera expression constructs, containing the ligand binding domain of mouse PPARα, β or γ, as well as the (UAS)5-tk-CAT reporter construct were kindly provided by Steven A. Kliewer (Glaxo Research Institute). At 75–90% confluence, COS-1 cells were co-transfected with GAL4-PPAR, (UAS)5-tk-CAT, and pSV-βGal (Promega) as described in Lehmann, J. M. et al., J. Biol. Chem. 270, 12953–12956 (1995). Twenty-four hours after transfection, the cells were treated with the indicated amounts of CLA, or a single 100 μM dose of 4-chloro-6-(2,3-xylindino)-2-pyrimidinylthio)-acetic acid (Wy 14,643; a hypolipidemic drug known as a peroxisome proliferator). After 6 hours of treatment, the cells were harvested and chloramphenicol acetyltransferase levels were assessed by ELISA (Gibco BRL) according to the manufacturer's instructions. Data is expressed relative to β-galactosidase activity. CLA used in this experiment was obtained from a commercially available mixture from NuChek Prep, Elysian Minn. The mixture contained about 41.2% by weight of a composition including cis,trans-9,11-octadecadienoic acid and trans,cis-9,11-octadecadienoic acid, about 44% by weight trans,cis-10,12-octadecadienoic acid, about 9.4% by weight cis,cis-10,12-octadecadienoic acid, about 1.3% by weight of a composition including trans,trans-9,11-octadecadienoic acid and trans,trans-10,12-octadecadienoic acid, about 1.1% by weight cis,cis-9,11-octadecadienoic acid, about 0.7% by weight linoleic acid and about 2.2% of other lipids as mentioned above.
In this example, certain PPAR subtypes are shown to be activated by CLA isomers. However, a 100 μM concentration of selected isomers of CLA were also utilized in the transfection assay to determine whether specific isomers of CLA could activate any of the PPAR subtypes.

In the next test the target is T3, full length mouse PPARα (Mus musculus, UniProt P23204).
T3 construct: constructs including full length mouse PPARα, PPARβ or PPARγ and a luciferase reporter gene; expressed in transfected cells; host or cells: CV-1 (African green monkey kidney cells)
T3 sequence (P23204 1-468): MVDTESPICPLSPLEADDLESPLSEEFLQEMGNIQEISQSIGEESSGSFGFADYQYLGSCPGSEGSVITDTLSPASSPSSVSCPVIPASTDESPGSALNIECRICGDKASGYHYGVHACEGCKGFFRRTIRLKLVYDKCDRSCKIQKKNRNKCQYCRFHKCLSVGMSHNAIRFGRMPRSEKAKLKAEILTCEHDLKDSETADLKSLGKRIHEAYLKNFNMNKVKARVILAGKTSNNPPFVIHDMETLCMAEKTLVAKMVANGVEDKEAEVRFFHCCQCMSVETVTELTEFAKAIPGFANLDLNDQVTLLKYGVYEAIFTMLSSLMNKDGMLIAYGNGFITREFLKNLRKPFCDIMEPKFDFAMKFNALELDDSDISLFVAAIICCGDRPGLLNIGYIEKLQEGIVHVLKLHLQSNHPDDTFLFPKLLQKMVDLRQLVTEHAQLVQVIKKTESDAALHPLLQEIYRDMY
Nature of the test: Full length PPARα PPRE-luciferase reporter assay in CV-1 cells. Conditions: 100 μM, six hours. The method, then: (§1) The data in FIGS. 5–7 was generated utilizing constructs including full length mouse PPARα, PPARβ or PPARγ and a luciferase reporter gene. The CV-1 cell line (African green monkey kidney cells) used was obtained from American Type Culture Collection (#CCL-70). The cells were grown in Eagle minimal essential medium containing 10% fetal bovine serum (GIBCO). For each transfection involving PPARα, 625 ng pcDNA3-PPARα expression vector was used along with 250 ng of psV-GL-2-PPRE-luciferase reporter plasmid and 250 ng of pSV-β-galactosidase internal control plasmid. For each transfection involving PPARβ or PPARγ, either 625 ng pSG5-mouse-PPARβ or 625 ng pSG5-mouse-PPARγ was used along with 250 ng of the psV-GL2-PPRE-luciferase reporter plasmid and 250 ng of pSV-β-galactosidase internal control plasmid. Cells were transfected using Lipofect AMINE™ reagent (GIBCO) and phenol red-free, serum free medium (OptiMEM®I, GIBCO Life Technologies, Grand Island, N.Y.). Seven hours post-transfection, charcoal stripped serum (Cocalico Biologicals, Inc. Reamstown, Pa.) was added to the media (10% final concentration) for an overnight incubation (16 hours). […] The data were quantified relative to luciferase/β-galactosidase activity expressed as a ratio to vehicle-treated cells (0.1% DMSO).

Another test deals with T4, full length mouse PPARβ (Mus musculus, UniProt P35396).
T4 construct: constructs including full length mouse PPARα, PPARβ or PPARγ and a luciferase reporter gene; expressed in transfected cells; host or cells: CV-1 (African green monkey kidney cells)
T4 sequence (P35396 1-440): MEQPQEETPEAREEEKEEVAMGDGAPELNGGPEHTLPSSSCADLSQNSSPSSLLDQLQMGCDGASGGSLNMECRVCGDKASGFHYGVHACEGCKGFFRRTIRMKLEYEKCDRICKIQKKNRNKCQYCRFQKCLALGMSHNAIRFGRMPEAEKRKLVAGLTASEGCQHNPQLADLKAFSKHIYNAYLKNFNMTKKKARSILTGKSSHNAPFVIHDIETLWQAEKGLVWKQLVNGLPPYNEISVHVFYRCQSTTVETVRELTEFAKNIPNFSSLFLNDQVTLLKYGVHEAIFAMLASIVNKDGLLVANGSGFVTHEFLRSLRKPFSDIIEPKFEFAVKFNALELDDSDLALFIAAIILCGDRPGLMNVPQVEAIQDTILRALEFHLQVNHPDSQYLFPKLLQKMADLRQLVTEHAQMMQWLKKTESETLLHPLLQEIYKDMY
Put plainly: Full length PPARβ PPRE-luciferase reporter assay in CV-1 cells. To be noted: 100 μM. The method, then: as §1

The next test has as its target T5, full length mouse PPARγ (Mus musculus, UniProt P37238).
T5 construct: constructs including full length mouse PPARα, PPARβ or PPARγ and a luciferase reporter gene; expressed in transfected cells; host or cells: CV-1 (African green monkey kidney cells)
T5 sequence (P37238 1-505): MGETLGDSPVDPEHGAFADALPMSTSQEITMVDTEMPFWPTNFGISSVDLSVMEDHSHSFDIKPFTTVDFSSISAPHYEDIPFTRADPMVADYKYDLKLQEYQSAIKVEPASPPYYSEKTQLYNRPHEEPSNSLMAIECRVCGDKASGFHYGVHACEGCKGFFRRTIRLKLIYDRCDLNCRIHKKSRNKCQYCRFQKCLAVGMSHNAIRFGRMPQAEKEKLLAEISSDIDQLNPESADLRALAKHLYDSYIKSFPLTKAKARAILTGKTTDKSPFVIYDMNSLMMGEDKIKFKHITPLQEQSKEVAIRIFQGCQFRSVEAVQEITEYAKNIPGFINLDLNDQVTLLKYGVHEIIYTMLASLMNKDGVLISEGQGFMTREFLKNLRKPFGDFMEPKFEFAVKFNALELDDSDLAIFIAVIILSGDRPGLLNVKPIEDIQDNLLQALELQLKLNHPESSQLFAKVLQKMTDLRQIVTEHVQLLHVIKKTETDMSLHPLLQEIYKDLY
Put plainly: Full length PPARγ PPRE-luciferase reporter assay in CV-1 cells. Conditions: 100 μM, six hours. The method, then:
as §1

Setting [3] is: listed as trans,cis-10,12-octadecadienoic acid.

SMILES strings stand for the structures.

Turning to `CCCCCC/C=C\C=C/CCCCCCCC(=O)O` [9Z11Z, cis,cis-9,11-octadecadienoic acid], the “activation of PPARα, compared with CLA mixture (FIG. 4)” value in test [1] is reported as “more than the CLA mixture”. Besides, in test [2], the “activation of PPARβ, compared with CLA mixture (FIG. 4)” value is “more than the CLA mixture”.

In the case of `CCCCC/C=C\C=C\CCCCCCCCC(=O)O` [trans,cis-10,12 CLA isomer, trans,cis-10,12-octadecadienoic acid], the “activation of full length PPARα vs DMSO control / CLA mixture (FIG. 5)” value on full length mouse PPARα is reported as “significantly more than the CLA mixture alone”; at full length mouse PPARα (setting [3]) it was “activate”. In addition, the “activation of full length PPARβ vs DMSO control / CLA mixture (FIG. 6)” value at full length mouse PPARβ is “significantly more than the CLA mixture alone”; on full length mouse PPARβ (setting [3]), “activate”. The “activation of full length PPARγ vs DMSO control (FIG. 7)” value at full length mouse PPARγ was “activate”.

Take `CCCCCC/C=C/C=C/CCCCCCCC(=O)O` [9E11E, trans,trans-9,11-octadecadienoic acid]: in test [2], the “activation of PPARβ, compared with CLA mixture (FIG. 4)” value is listed as “more than CLA mixture alone”.

`CCCCCC/C=C/C=C\CCCCCCCC(=O)O` [9Z11E, cis,trans-9,11-octadecadienoic acid]: the “activation of PPARα, compared with CLA mixture (FIG. 4)” value in test [1] is on record as “more than the CLA mixture”. Moreover, the “activation of PPARβ, compared with CLA mixture (FIG. 4)” value in test [2] was “more than the CLA mixture”.

The record behind these values is patent US7015249B1, “Methods and compositions for treating diabetes” (Purdue Research Foundation, priority 1997, dated 2006).
